Consider 1 molecule from US6911432B2, “Drugs, foods or drinks with the use of algae-derived physiologically active substances” (priority 1997, dated 2005).

One experiment relates to RAW 264.7 cells. Briefly: NO production induced by LPS, NO2- concentration in medium. The class given is cell-based, mouse. The following applies: RAW 264.7; 10 μl of 5000 to 50 μM solution per 500 μl well; 12 hours. Here is the method:
(1) RAW 264.7 cells (ATCC TIB 71) were suspended in phenol red-free Dulbecco's modified Eagle's medium containing 10% fetal bovine serum (manufactured by Gibco) and 2 mM L-glutamine (manufactured by Life Technologies Oriental, 25030-149) at a concentration of 3×10^5 cells/ml, and 500 μl portions thereof were seeded to respective wells of a 48-well microtiter plate and incubated at 37° C. for 12 hours in the presence of 5% CO2. To each well were added 10 μl of 25 μg/ml lipopolysaccharide (LPS, manufactured by Sigma, L-2012) and 10 μl of aqueous 5000, 1500, 500, 150 or 50 μM agarobiose or neoagarobiose (manufactured by Sigma, G4410) solution, and the plate was incubated for additional 12 hours. Then, concentration of NO2^− produced by oxidation of NO in the medium was measured. As control groups, a group to which LPS was not added and a group to which agarobiose or neoagarobiose was not added were provided.
After incubating as described above, 100 μl of 4% Greece reagent (manufactured by Sigma, G4410) was added to 100 μl of the medium, and the mixture was allowed to stand for 15 minutes at room temperature. Then, the absorbance at 490 nm was measured. NO2^− concentration in the medium was calculated with reference to a calibration curve prepared by using NaNO2 at given concentrations dissolved in the same medium as that described above. All the measurements were carried out in triplicate.
(2) A suspension of 5 g of commercially available agar (Ina agar type S-7, manufactured by Ina Shokuhin Kogyo) in 45 ml of 0.1 N HCl was treated at 95° C. for 13 minutes. After cooling to room temperature, the suspension was neutralized with NaOH and filtered through 0.22 μm MILLEX-GP filter (manufactured by Milipore, SLGPR25LS). […] Namely, 10 μl of 25 μg/ml LPS and 10 μl of a 20-fold dilution of the sample mentioned above were added to wells of a 48 well microtiter plate containing RAW264.7 cells which had been incubated in the wells. The measurement was carried out with the culture medium. As control groups, a group to which LPS was not added, a group to which a sample was not added and a group to which 2.5 mM citric acid was added were provided. All the measurement were carried out in duplicate.

In another experiment the test system is HL-60 cells. Briefly: apoptosis-inducing assay, cell morphology under an optical microscope. The class given is cell-based, human. Here is the method:
Human promyelocytic leukemia cell HL-60 (ATCC CCL-240) was incubated at 37° C. in RPMI 1640 medium (manufactured by Gibco) supplemented with 10% of fetal bovine serum (JRH Bioscience) which had been treated at 56° C. for 30 minutes, and suspended in the same medium at a concentration of 500 cells/90 μl. Each 90 μl portion of the suspension was distributed into each well of a 96 well plate (manufactured by Falcon). To the suspension in each well was added 10 μl of the above-mentioned acid decomposition solution, a 10-fold dilution of the solution or water, and incubated with 5% CO2 at 37° C. After 24 hour and 48 hour from the initiation of the incubation, the cell morphology was observed under an optical microscope. Then, according to the MTT method described in “Apoptosis Jikken Protocol” (Syuzyun-sha, Tanuma, Seiichi ed., pp. 156 (1994)), 5 mg/ml of 3-(4,5-dimethylthiazole-2-yl)-2,5-diphenyltetrazolium bromide (manufactured by Sigma) and 10 μl of phosphate buffered saline solution were added to the culture and the incubation was continued for additional 4 hours. Then, 100 μl of 2-propanol containing 0.04 N hydrochloric acid was added to the culture, and the mixture was thoroughly stirred. An absorbance at 590 nm was measured and the number of viable cells was calculated from the absorbance measured for each of the wells, which was compared each other.
Each elution peak was fractionated, collected, evaporated to dryness under reduced pressure and then dissolved in 300 μl of water. Each fraction was sterilized by filtration and its 10 μl portion was placed in a well of a 96 well microtiter plate. Then, 90 μl of RPMI 1640 medium (manufactured by Nissui) containing 10% fetal bovine serum (manufactured by Gibco) and 5,000 HL-60 cells (ATCC CCL-240) was added thereto, followed by incubation at 37° C. for 48 hours with 5% CO2. The cell morphology was observed under an optical microscope. Then, 5 mg/ml 3-(4,5-dimethylthiazole-2-yl)-2,5-diphenyltetrazolium bromide and 10 μl of phosphate buffered saline solution were added thereto and the incubation was continued for additional 4 hours. To the culture was added 100 μl of 2-propanol containing 0.04 N hydrochloric acid and the resultant mixture was thoroughly stirred. The absorbance at 590 nm was measured to determine a cell proliferation rate.

For another experiment, the system named is spleen lymphocytes. Description: mixed lymphocyte reaction, 3H-thymidine uptake. The class given is cell-based, BALB/c mouse and C57BL/6 mouse. Here is the method:
Spleens were taken out from a BALB/c mouse (Nippon SLC; male, 6 weeks old) and a C57BL/6 mouse (Nippon SLC; male, 6 weeks old) and spleen lymphocytes were obtained by the above-described method. Each cell suspension was adjusted to a concentration of 2×10^6 cell/ml, 100 μl portions from respective suspensions were mixed together and seeded in a 96 well microtiter plate. Agarobiose at varying concentration was added to the wells other than the control well, and the plate was incubated at 37° C. for 4 days in a carbon dioxide incubator. After incubation, 1 μCi of ^3H-thymidine was added to each well, and the plate was incubated for additional 1 day. Its uptake into cells was measured using a liquid scintillation counter.
That is, FIG. 35 illustrates the relation between the agarobiose concentration and the ^3H-thymidine uptake in the mixed lymphocyte reaction. The horizontal axis represents the agarobiose concentration and the vertical axis represents ^3H-thymidine uptake (cpm). The open bar and the shaded bar represent ^3H-thymidine uptake in case where cells from either one of the lines were used independently, and in case where mixed cells from both of the lines were used, respectively. […] Thus, the inhibitory activity against lymphocyte activation of agarobiose has been recognized.

Turning to `OC[C@H]1O[C@@H](O[C@H]2[C@H]3OC[C@@H]2OC(O)[C@H]3O)[C@H](O)[C@@H](O)[C@H]1O` (mixture of isomers) [Agarobiose, agarobiose], the “inhibition of NO production induced by LPS (in words)” value in the experiment on RAW 264.7 cells is “dose-dependently inhibited”. In addition, the “apoptosis corpuscles under an optical microscope” value in the experiment on HL-60 cells (78 μg/ml) is recorded as “apoptosis corpuscles were observed”. The “apoptosis-inducing activity (apoptosis corpuscles, in words)” value in the experiment on HL-60 cells (preparations and fractions) is on record as “had both activities”. For the same molecule, in the experiment with spleen lymphocytes, the “inhibitory activity against mixed lymphocyte reaction (in words)” value is “dose-dependent inhibitory activity”. Moreover, the “inhibition of lymphocytes activation by stimulation with an alloantigen” value in the experiment with spleen lymphocytes (10 μg/ml) is “almost completely inhibits”.
